Measurements taken from paper PMC11855827, “High-Throughput Screening of Five Compound Libraries for Anthelmintic Activity and Toxicity Leads to the Discovery of Two Flavonoid Compounds” (International Journal of Molecular Sciences, 2025).
Like-named read-outs stand apart in the source and are kept apart here.

System: C. elegans
Assay: microbe, parasite or virus in culture
Settings: Caenorhabditis elegans
[1] = 0 h, read-out: Percentage of motility inhibition 0 h, Table S2, C. elegans SS assay, 110 μM, 0 h, averages of 4 data points
[2] = 24 h, read-out: Percentage of motility inhibition 24 h, Table S2, C. elegans SS assay, 110 μM, 24 h, averages of 4 data points
[3] = 0 h, read-out: Percentage of motility inhibition 0 h
[4] = 24 h, read-out: Percentage of motility inhibition 24 h

CC(C)(O/N=C(\C(=O)N[C@@H]1C(=O)N2C(C(=O)[O-])=C(C[n+]3ccccc3)CS[C@H]12)c1csc(N)n1)C(=O)O [Ceftazidime]
inhibition at 110 µM [1]: 37%
inhibition at 110 µM [2]: 28%

CC1=C(O)C(=O)C=C2C1=CC=C1[C@@]2(C)CC[C@@]2(C)[C@@H]3C[C@](C)(C(=O)O)CC[C@]3(C)CC[C@]12C [Celastrol]
inhibition at 110 µM [1]: 0%
inhibition at 110 µM [2]: 13%

CC1=C(C(=O)O)N2C(=O)[C@@H](NC(=O)[C@H](N)c3ccccc3)[C@H]2SC1 [Cephalexin]
inhibition at 110 µM [1]: 21%
inhibition at 110 µM [2]: 13%

C/C=C(\C)C(=O)N[C@@H](c1ccccc1)[C@@H](O)C(=O)O[C@H]1C[C@@]2(O)[C@@H](OC(=O)c3ccccc3)[C@@H]3[C@]4(OC(C)=O)CO[C@@H]4C[C@H](O)[C@@]3(C)C(=O)[C@H](OC(C)=O)C(=C1C)C2(C)C [Cephalomannine]
inhibition at 110 µM [1]: 31%
inhibition at 110 µM [2]: 34%

COC1=C[C@]23CCCN2CCc2cc4c(cc2[C@@H]3[C@@H]1O)OCO4 [Cephalotaxine]
inhibition at 110 µM [1]: 0%
inhibition at 110 µM [2]: 0%

CN1Cc2c(ccc3c2OCO3)[C@@H]2[C@H]1c1cc3c(cc1C[C@@H]2O)OCO3 [Chelidonine]
inhibition at 110 µM [1]: 0%
inhibition at 110 µM [2]: 0%

C[C@H](CCC(=O)O)[C@H]1CC[C@H]2[C@@H]3[C@H](O)C[C@@H]4C[C@H](O)CC[C@]4(C)[C@H]3CC[C@]12C [Chenodeoxycholic Acid]
inhibition at 110 µM [1]: 0%
inhibition at 110 µM [2]: 5%

CC1(C)CC[C@]2(C(=O)O[C@@H]3O[C@H](CO)[C@@H](O)[C@H](O)[C@H]3O)CC[C@]3(C)C(=CC[C@@H]4[C@@]5(C)CC[C@H](O[C@@H]6O[C@H](C(=O)O)[C@@H](O)[C@H](O)[C@H]6O)C(C)(C)[C@@H]5CC[C@]43C)[C@@H]2C1 [Chikusetsusaponin Iva]
inhibition at 110 µM [1]: 5%
inhibition at 110 µM [2]: 14%

O=C(N[C@H](CO)[C@H](O)c1ccc([N+](=O)[O-])cc1)C(Cl)Cl [Chloramphenicol]
inhibition at 110 µM [1]: 6%
inhibition at 110 µM [2]: 2%

[H]/N=C(\N/C(=N/[H])NCCCCCCNC(=N)NC(=N)Nc1ccc(Cl)cc1)Nc1ccc(Cl)cc1 [Chlorhexidine]
inhibition at 110 µM [1]: 38%
inhibition at 110 µM [2]: 63%

Oc1c(Cl)cc(Cl)c2cccnc12 [Chloroxine]
inhibition at 110 µM [1]: 43%
inhibition at 110 µM [2]: 34%

Cc1ccc2c(Cl)cc(Cl)c(O)c2n1 [Chlorquinaldol]
inhibition at 110 µM [1]: 19%
inhibition at 110 µM [2]: 38%

CC(C)CCC[C@@H](C)[C@H]1CC[C@H]2[C@@H]3CC=C4C[C@@H](O)CC[C@]4(C)[C@H]3CC[C@]12C [Cholesterol]
inhibition at 110 µM [1]: 24%
inhibition at 110 µM [2]: 17%

C[C@H](CCC(=O)O)[C@H]1CC[C@H]2[C@@H]3[C@H](O)C[C@@H]4C[C@H](O)CC[C@]4(C)[C@H]3C[C@H](O)[C@]12C [Cholic acid]
inhibition at 110 µM [3]: 0%
inhibition at 110 µM [4]: 8%

O=c1cc(-c2ccccc2)oc2cc(O)cc(O)c12 [Chrysin]
inhibition at 110 µM [1]: 15%
inhibition at 110 µM [2]: 0%

COc1cc(-c2cc(=O)c3c(O)cc(O)cc3o2)ccc1O [Chrysoeriol]
inhibition at 110 µM [1]: 18%
inhibition at 110 µM [2]: 1%

Cc1cc(C2CCCCC2)n(O)c(=O)c1 [Ciclopirox]
inhibition at 110 µM [1]: 42%
inhibition at 110 µM [2]: 41%

Nc1ccn(C[C@@H](CO)OCP(=O)(O)O)c(=O)n1 [Cidofovir]
inhibition at 110 µM [1]: 15%
inhibition at 110 µM [2]: 3%

C=C[C@H]1CN2CC[C@H]1C[C@H]2[C@H](O)c1ccnc2ccccc12 [Cinchonidine]
inhibition at 110 µM [1]: 0%
inhibition at 110 µM [2]: 0%

C=C[C@H]1C[N@@]2CC[C@H]1C[C@@H]2[C@@H](O)c1ccnc2ccccc12 [Cinchonine]
inhibition at 110 µM [1]: 6%
inhibition at 110 µM [2]: 0%

O=C(O)c1cn(C2CC2)c2cc(N3CCNCC3)c(F)cc2c1=O [Ciprofloxacin]
inhibition at 110 µM [1]: 33%
inhibition at 110 µM [2]: 2%

C[N+](C)(C)CCOP(=O)(O)OP(=O)([O-])OC[C@H]1O[C@@H](n2ccc(N)nc2=O)[C@H](O)[C@@H]1O [Citicoline]
inhibition at 110 µM [1]: 0%
inhibition at 110 µM [2]: 0%

O=C(O)CC(O)(CC(=O)O)C(=O)O [Citric acid]
inhibition at 110 µM [1]: 0%
inhibition at 110 µM [2]: 18%

CC(C)=CCCC(C)CCO (centres unmarked) [Citronellol]
inhibition at 110 µM [1]: 15%
inhibition at 110 µM [2]: 28%

CC[C@H]1OC(=O)[C@H](C)[C@@H](O[C@H]2C[C@@](C)(OC)[C@@H](O)[C@H](C)O2)[C@H](C)[C@@H](O[C@@H]2O[C@H](C)C[C@H](N(C)C)[C@H]2O)[C@](C)(OC)C[C@@H](C)C(=O)[C@H](C)[C@@H](O)[C@]1(C)O [Clarithromycin]
inhibition at 110 µM [1]: 12%
inhibition at 110 µM [2]: 10%

Cc1cn([C@H]2O[C@@H](CO)[C@H](O)[C@H]2F)c(=O)[nH]c1=O [Clevudine]
inhibition at 110 µM [1]: 2%
inhibition at 110 µM [2]: 0%

CC(C)(C)C(=O)C(Oc1ccc(Cl)cc1)n1ccnc1 (centres unmarked) [Climbazole]
inhibition at 110 µM [1]: 53%
inhibition at 110 µM [2]: 2%

Oc1c(I)cc(Cl)c2cccnc12 [Clioquinol]
inhibition at 110 µM [1]: 23%
inhibition at 110 µM [2]: 0%

CC(C)/N=c1\cc2n(-c3ccc(Cl)cc3)c3ccccc3nc-2cc1Nc1ccc(Cl)cc1 [Clofazimine]
inhibition at 110 µM [1]: 6%
inhibition at 110 µM [2]: 7%

CC(C)(C)CC(C)(C)c1ccc(O)c(Cc2ccc(Cl)cc2Cl)c1 [Clofoctol]
inhibition at 110 µM [1]: 37%
inhibition at 110 µM [2]: 44%

Cc1nc(C)c(Cl)c(O)c1Cl [Clopidol]
inhibition at 110 µM [1]: 7%
inhibition at 110 µM [2]: 11%

Nc1cc(C(Cl)=C(Cl)Cl)c(S(N)(=O)=O)cc1S(N)(=O)=O [Clorsulon]
inhibition at 110 µM [1]: 12%
inhibition at 110 µM [2]: 5%

Cc1cc(C(C#N)c2ccc(Cl)cc2)c(Cl)cc1NC(=O)c1cc(I)cc(I)c1O (centres unmarked) [Closantel]
inhibition at 110 µM [1]: 4%
inhibition at 110 µM [2]: 48%

Clc1ccccc1C(c1ccccc1)(c1ccccc1)n1ccnc1 [Clotrimazole]
inhibition at 110 µM [1]: 6%
inhibition at 110 µM [2]: 0%

Oc1ccc(Cl)c2cccnc12 [Cloxiquine]
inhibition at 110 µM [1]: 40%
inhibition at 110 µM [2]: 19%

COc1cc2c(c(OC)c1OC)-c1ccc(OC)c(=O)cc1[C@@H](NC(C)=O)CC2 [Colchicine]
inhibition at 110 µM [3]: 0%
inhibition at 110 µM [4]: 6%

COc1cc2c(cc1O)-c1cc3ccc(OC)c(OC)c3c[n+]1CC2 [Columbamine]
inhibition at 110 µM [1]: 1%
inhibition at 110 µM [2]: 0%

COc1cc(O)c2c(=O)c(O[C@@H]3O[C@H](CO)[C@@H](O)[C@H](O)[C@H]3O)c(-c3ccc(O[C@@H]4O[C@H](CO)[C@@H](O)[C@H](O)[C@H]4O)cc3)oc2c1 [Complanatuside]
inhibition at 110 µM [1]: 0%
inhibition at 110 µM [2]: 22%

C[C@@H]1O[C@@H](O[C@H]2CC[C@]3(C=O)[C@H]4CC[C@]5(C)[C@@H](C6=CC(=O)OC6)CC[C@]5(O)[C@@H]4CC[C@]3(O)C2)[C@H](O)[C@H](O)[C@H]1O [Convallatoxin]
inhibition at 110 µM [1]: 2%
inhibition at 110 µM [2]: 3%

CC[C@H]1C[C@@H]2CN3CCc4c([nH]c5ccccc45)[C@](C(=O)OC)(C2)[C@H]13 [Coronaridine]
inhibition at 110 µM [1]: 0%
inhibition at 110 µM [2]: 5%

C[C@H]1[C@H](C)CC[C@]2(C(=O)O)CC[C@]3(C)C(=CC[C@@H]4[C@@]5(C)C[C@@H](O)[C@H](O)C(C)(C)[C@@H]5CC[C@]43C)[C@H]12 [Corosolic acid]
inhibition at 110 µM [1]: 23%
inhibition at 110 µM [2]: 34%

C=C[C@H]1CN2CC[C@]3(C(=O)Nc4ccccc43)[C@@H]2C[C@@H]1/C(=C\OC)C(=O)OC [Corynoxeine]
inhibition at 110 µM [1]: 0%
inhibition at 110 µM [2]: 2%

CC[C@@H]1CN2CC[C@]3(C(=O)Nc4ccccc43)[C@@H]2C[C@@H]1/C(=C\OC)C(=O)OC [Corynoxine B]
inhibition at 110 µM [1]: 5%
inhibition at 110 µM [2]: 20%

CC[C@@H]1CN2CC[C@@]3(C(=O)Nc4ccccc43)[C@@H]2C[C@@H]1/C(=C\OC)C(=O)OC [Corynoxine]
inhibition at 110 µM [1]: 3%
inhibition at 110 µM [2]: 3%

C=C1C(=O)O[C@@H]2/C=C(\C)CC/C=C(\C)CC[C@@H]12 [Costunolide]
inhibition at 110 µM [1]: 0%
inhibition at 110 µM [2]: 21%

CN1C(=O)CC[C@H]1c1cccnc1 [Cotinine]
inhibition at 110 µM [1]: 45%
inhibition at 110 µM [2]: 16%

O=c1ccc2ccccc2o1 [Coumarin]
inhibition at 110 µM [1]: 12%
inhibition at 110 µM [2]: 8%

CCN1C[C@]2(COC)CC[C@H](OC)[C@]34C1[C@H]([C@H](OC)[C@H]23)[C@@]1(OC(C)=O)C[C@H](OC)[C@@]2(O)C[C@@H]4[C@@H]1[C@H]2OC(=O)c1ccc(OC)cc1 [Crassicauline A]
inhibition at 110 µM [1]: 0%
inhibition at 110 µM [2]: 0%

CN(CC(=O)O)C(=N)N [Creatine]
inhibition at 110 µM [1]: 4%
inhibition at 110 µM [2]: 9%

COc1ccc2c(c1OC)CC1c3c(cc4c(c3-2)OCO4)CCN1C (centres unmarked) [Crebanine]
inhibition at 110 µM [1]: 0%
inhibition at 110 µM [2]: 4%

CC(C)(O)/C=C/C(=O)[C@](C)(O)[C@H]1[C@H](O)C[C@@]2(C)[C@@H]3CC=C4[C@@H](C[C@H](O)C(=O)C4(C)C)[C@]3(C)C(=O)C[C@]12C [Cucurbitacin D]
inhibition at 110 µM [1]: 10%
inhibition at 110 µM [2]: 22%

CC(=O)OC(C)(C)/C=C/C(=O)[C@](C)(O)[C@H]1[C@H](O)C[C@@]2(C)[C@@H]3CC=C4[C@@H](C=C(O)C(=O)C4(C)C)[C@]3(C)C(=O)C[C@]12C [Cucurbitacin E]
inhibition at 110 µM [1]: 0%
inhibition at 110 µM [2]: 11%

CC(C)(O)/C=C/C(=O)[C@](C)(O)[C@H]1[C@H](O)C[C@@]2(C)[C@@H]3CC=C4[C@@H](C=C(O)C(=O)C4(C)C)[C@]3(C)C(=O)C[C@]12C [Cucurbitacin I]
inhibition at 110 µM [1]: 0%
inhibition at 110 µM [2]: 23%

CC1=C[C@]2(O)O[C@@]3(CC2=C(C)C)[C@@H](C)CC[C@@H]13 [Curcumenol]
inhibition at 110 µM [1]: 0%
inhibition at 110 µM [2]: 38%

C=CC1(C)Cc2occ(C)c2C(=O)C1C(=C)C (centres unmarked) [Curzerenone]
inhibition at 110 µM [1]: 10%
inhibition at 110 µM [2]: 9%
